Legend:
[1] = target: T1, Cbl-b (Homo sapiens (Human), UniProt Q13191); test: Cbl-b displacement assay (Cbl-b inhibition assay), Biological Example 1; format: binding
Outline: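 Probe displacement read as TR-FRET (520/620 nm) after 1 h with 2 nM streptavidin-terbium and 150 nM BODIPY FL-labelled inhibitor probe, about EC40. Before that, compound in 1% DMSO sat 1 h at room temperature with N-Avitag biotinylated Cbl-b 36–427, 0.5 nM (High) or 0.125 nM (Low), in pH 7.5 HEPES buffer.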

[2] = target: T1, Cbl-b; test: Cbl-b displacement assay (Cbl-b inhibition assay), Biological Example 8; format: binding; conditions: 0.125 nM Cbl-b final concentration (Low), Table 4; read-out: Cbl-b IC50 (Low)
Protocol: (§1) Candidate compounds were evaluated for their ability to bind and inhibit Cbl-b, an E3 ubiquitin-protein ligase, as evidenced by their ability to displace a fluorophore-labeled probe bound to Cbl-b.
(§2) The ability of candidate compounds to displace a known inhibitor and thereby inhibit Cbl-b activity was measured by monitoring the interaction of Cbl-b with a fluorophore-labeled probe in the presence of the candidate compound. A truncated variant of Cbl-b (UniProt number Q13191) containing residues 36-427 and an Avitag at its N-terminus was co-expressed with BirA biotin ligase and purified using a standard protocol (see Dou et al., Nature Structural and Molecular Biology 8: 982-987, 2013; Avidity LLC).
Fluorescently-labeled inhibitor probe was synthesized and tagged with BODIPY FL. Cbl-b displacement assays were performed in a 384-well plate at room temperature in a […] by pre-incubating 0.5 nM Cbl-b or 0.125 nM Cbl-b (final concentration, indicated as “High” and “Low,” respectively) in an assay buffer containing 20 mM HEPES pH 7.5, 150 mM NaCl, 0.01% Triton X-100, 0.01% BSA, and 0.5 mM TCEP in the presence of a candidate compound in 1% DMSO (final concentration) for 1 hour. After incubation in the presence of the candidate compound, the plate was incubated for an additional one hour in the presence of an approximate EC40 binding saturation consisting of 150 nM fluorescently-labeled inhibitor probe and 2 nM Streptavidin-Terbium (Cisbio) (final concentrations). Following the one hour incubation, the plates were read for TR-FRET signal at […] using an Envision plate reader (Perkin Elmer).
(§3) The resulting data for the Cbl-b activity assays were analyzed using standard methods to determine the IC50 values for the tested compounds.

[3] = target: T1, Cbl-b; test: Cbl-b displacement assay (Cbl-b inhibition assay), Biological Example 12; format: binding; conditions: 0.125 nM Cbl-b final concentration (Low), Table 7; read-out: Cbl-b IC50 (Low)
Protocol: as §1, §2
Fluorescently-labeled inhibitor probe was synthesized and tagged with BODIPY FL. Cbl-b displacement assays were performed in a 384-well plate at room temperature in a […] by pre-incubating 0.5 nM Cbl-b or 0.125 nM Cbl-b (final concentration, indicated as “High” and “Low,” respectively) in an assay buffer containing 20 mM HEPES pH 7.5, 150 mM NaCl, 0.01% Triton X-100, 0.01% BSA and 0.5 mM TCEP in the presence of a candidate compound in 1% DMSO (final concentration) for one hour. After incubation in the presence of the candidate compound, the plate was incubated for an additional one hour in the presence of an approximate EC40 binding saturation consisting of 150 nM fluorescently-labeled inhibitor probe and 2 nM Streptavidin-Terbium (Cisbio) (final concentrations). Following the one hour incubation, the plates were read for TR-FRET signal at […] using an Envision plate reader (Perkin Elmer).
as §3

[4] = system: primary human total T-cells; test: T-cell activation, IL-2 secretion, Biological Example 2; format: cell-based; conditions: 48 hours, fold change over baseline; for fold induction at 0.3 µM: 0.3 μM inhibitor; for fold induction at 1 µM: 1 μM inhibitor; for fold induction at 3 µM: 3 μM inhibitor
[5] = system: primary human total T-cells; test: T-cell activation, CD25 surface staining, Biological Example 2; format: cell-based; conditions: 48 hours, fold change over baseline; for fold induction at 0.3 µM: 0.3 μM inhibitor; for fold induction at 1 µM: 1 μM inhibitor; for fold induction at 3 µM: 3 μM inhibitor
[6] = system: primary human total T-cells; test: T-cell activation, IL-2 secretion, Biological Example 9; format: cell-based; conditions: 48 hours, fold change over baseline, Table 5; for IL-2 secretion CD3/CD28 0.3 μM / IL-2 secretion CD3/CD28 1 μM: anti-CD3 and anti-CD28 co-stimulation; for IL-2 secretion CD3/CD28 0.3 μM: 0.3 μM inhibitor; for IL-2 secretion CD3/CD28 1 μM / IL-2 secretion CD3 1 μM: 1 μM inhibitor; for IL-2 secretion CD3 1 μM / IL-2 secretion CD3 3 μM: anti-CD3 stimulation alone; for IL-2 secretion CD3 3 μM: 3 μM inhibitor
[7] = system: primary human total T-cells; test: T-cell activation, IL-2 secretion, Biological Example 13; format: cell-based; conditions: 48 hours, fold change over baseline, Table 8; for IL-2 secretion CD3/CD28 0.3 μM / IL-2 secretion CD3/CD28 1 μM: anti-CD3 and anti-CD28 co-stimulation; for IL-2 secretion CD3/CD28 0.3 μM: 0.3 μM inhibitor; for IL-2 secretion CD3/CD28 1 μM / IL-2 secretion CD3 1 μM: 1 μM inhibitor; for IL-2 secretion CD3 1 μM / IL-2 secretion CD3 3 μM: anti-CD3 stimulation alone; for IL-2 secretion CD3 3 μM: 3 μM inhibitor
[8] = 0.125 nM Cbl-b final concentration (Low), read-out: Cbl-b activity IC50 (Low)
[9] = read-out: IC50 values in the Cbl-b inhibition assay of Biological Example 1
[10] = anti-CD3 and anti-CD28 co-stimulation
[11] = anti-CD3 and anti-CD28 co-stimulation, read-out: IL-2 secretion CD3/CD28 1 μM
[12] = anti-CD3 stimulation alone, read-out: IL-2 secretion CD3 1 μM
[13] = anti-CD3 and anti-CD28 co-stimulation, read-out: CD25 staining CD3/CD28 1 μM
[14] = anti-CD3 stimulation alone, read-out: CD25 staining CD3 1 μM

T1 sequence (Q13191 36-427): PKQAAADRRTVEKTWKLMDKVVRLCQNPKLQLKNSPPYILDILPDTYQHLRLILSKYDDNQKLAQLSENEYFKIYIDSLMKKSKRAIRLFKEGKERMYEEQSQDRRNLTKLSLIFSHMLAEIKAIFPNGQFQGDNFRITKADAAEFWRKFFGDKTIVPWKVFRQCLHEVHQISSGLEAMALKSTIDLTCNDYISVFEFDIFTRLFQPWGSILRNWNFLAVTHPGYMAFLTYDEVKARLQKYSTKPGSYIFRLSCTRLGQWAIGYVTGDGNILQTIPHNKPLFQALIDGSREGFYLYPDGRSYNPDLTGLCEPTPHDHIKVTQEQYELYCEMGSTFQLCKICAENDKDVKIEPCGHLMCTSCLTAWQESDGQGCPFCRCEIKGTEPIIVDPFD

SMILES: Cn1cnnc1C[C@]1(c2cccc(N3Cc4c(cc(CN5CCC6(CC6)C5)cc4C(F)(F)F)C3=O)c2)C[C@H](C#N)C1 [Compound 4, (1r,3r)-3-(3-(6-((5-azaspiro[2.4]heptan-5-yl)methyl)-1-oxo-4-(trifluoromethyl)isoindolin-2-yl)phenyl)-3-((4-methyl-4H-1,2,4-triazol-3-yl)methyl)cyclobutane-1-carbonitrile]
- IC50 [1, 8]: 1 to 2 nM
- IC50 [1, 9]: 1 to 2 nM
- IC50 [2]: 1 to 5 nM
- IC50 [3]: 1 to 5 nM
- fold induction at 0.3 µM [4, 10]: ≤ 15
- fold induction at 1 µM [4, 11]: 15 to 20
- fold induction at 1 µM [4, 12]: 0.4 to 0.85
- fold induction at 3 µM ([4]; anti-CD3 stimulation alone): 0.4 to 0.85
- fold induction at 0.3 µM [5, 10]: 1.24 to 1.39
- fold induction at 1 µM [5, 13]: 1.24 to 1.39
- fold induction at 1 µM [5, 14]: > 1.15
- fold induction at 3 µM ([5]; anti-CD3 stimulation alone): > 1.15
- IL-2 secretion CD3/CD28 0.3 μM [6]: A (A indicates >15 fold)
- IL-2 secretion CD3/CD28 1 μM [6]: A (A indicates >15 fold)
- IL-2 secretion CD3 1 μM [6]: A (A indicates >0.66 fold)
- IL-2 secretion CD3 3 μM [6]: A (A indicates >0.66 fold)
- IL-2 secretion CD3/CD28 0.3 μM [7]: A (A indicates >15 fold)
- IL-2 secretion CD3/CD28 1 μM [7]: A (A indicates >15 fold)
- IL-2 secretion CD3 1 μM [7]: A (A indicates >0.66 fold)
- IL-2 secretion CD3 3 μM [7]: A (A indicates >0.66 fold)

SMILES: C[C@@H]1CN(Cc2cc3c(c(C(F)(F)F)c2)CN(c2cccc([C@]4(Cc5nncn5C)C[C@@H](C#N)C4)c2)C3=O)CCC1(F)F [Compound 11, (1R,3r)-3-(3-(6-(((R)-4,4-difluoro-3-methylpiperidin-1-yl)methyl)-1-oxo-4-(trifluoromethyl)isoindolin-2-yl)phenyl)-3-((4-methyl-4H-1,2,4-triazol-3-yl)methyl)cyclobutane-1-carbonitrile]
- IC50 [1, 8]: 1 to 2 nM
- IC50 [1, 9]: 1 to 2 nM
- IC50 [2]: 1 to 5 nM
- IC50 [3]: 1 to 5 nM
- fold induction at 0.3 µM [4, 10]: > 20
- fold induction at 1 µM [4, 11]: > 20
- fold induction at 1 µM [4, 12]: > 0.85
- fold induction at 3 µM ([4]; anti-CD3 stimulation alone): > 0.85
- fold induction at 0.3 µM [5, 10]: 1.24 to 1.39
- fold induction at 1 µM [5, 13]: 1.24 to 1.39
- fold induction at 1 µM [5, 14]: 1 to 1.15
- fold induction at 3 µM ([5]; anti-CD3 stimulation alone): ≤ 1
- IL-2 secretion CD3/CD28 0.3 μM [6]: A (A indicates >15 fold)
- IL-2 secretion CD3/CD28 1 μM [6]: A (A indicates >15 fold)
- IL-2 secretion CD3 1 μM [6]: A (A indicates >0.66 fold)
- IL-2 secretion CD3 3 μM [6]: A (A indicates >0.66 fold)
- IL-2 secretion CD3/CD28 0.3 μM [7]: A (A indicates >15 fold)
- IL-2 secretion CD3/CD28 1 μM [7]: A (A indicates >15 fold)
- IL-2 secretion CD3 1 μM [7]: A (A indicates >0.66 fold)
- IL-2 secretion CD3 3 μM [7]: A (A indicates >0.66 fold)

SMILES: Cn1cnnc1C[C@]1(c2cccc(N3Cc4c(cc(CN5CCC[C@H](C(F)(F)F)C5)nc4C4CC4)C3=O)c2)C[C@H](C#N)C1 [Compound 49, (1r,3r)-3-(3-(4-cyclopropyl-1-oxo-6-(((S)-3-(trifluoromethyl)piperidin-1-yl)methyl)-1,3-dihydro-2H-pyrrolo[3,4-c]pyridin-2-yl)phenyl)-3-((4-methyl-4H-1,2,4-triazol-3-yl)methyl)cyclobutane-1-carbonitrile]
- IC50 [1, 8]: < 1 nM
- IC50 [1, 9]: < 1 nM
- fold induction at 0.3 µM [4, 10]: > 20
- fold induction at 1 µM [4, 11]: > 20
- fold induction at 1 µM [4, 12]: > 0.85
- fold induction at 3 µM ([4]; anti-CD3 stimulation alone): > 0.85
- fold induction at 0.3 µM [5, 10]: > 1.39
- fold induction at 1 µM [5, 13]: > 1.39
- fold induction at 1 µM [5, 14]: > 1.15
- fold induction at 3 µM ([5]; anti-CD3 stimulation alone): > 1.15

SMILES: Cn1cnnc1C[C@]1(c2cccc(N3Cc4c(cc(CN5CCCCC(F)(F)C5)cc4C(F)(F)F)C3=O)c2)C[C@H](C#N)C1 [Compound 50, (1r,3r)-3-(3-(6-((3,3-difluoroazepan-1-yl)methyl)-1-oxo-4-(trifluoromethyl)isoindolin-2-yl)phenyl)-3-((4-methyl-4H-1,2,4-triazol-3-yl)methyl)cyclobutane-1-carbonitrile]
- IC50 [1, 8]: 2 to 5 nM
- IC50 [1, 9]: 2 to 5 nM
- fold induction at 0.3 µM [4, 10]: > 20
- fold induction at 1 µM [4, 11]: > 20
- fold induction at 1 µM [4, 12]: > 0.85
- fold induction at 3 µM ([4]; anti-CD3 stimulation alone): 0.4 to 0.85
- fold induction at 0.3 µM [5, 10]: > 1.39
- fold induction at 1 µM [5, 13]: > 1.39
- fold induction at 1 µM [5, 14]: > 1.15
- fold induction at 3 µM ([5]; anti-CD3 stimulation alone): > 1.15
